US10100008B2, “Immunostimulating agent” (AJINOMOTO CO., INC., priority 2014, dated 2018)
Like-named read-outs stand apart in the source and are kept apart here.

Columns and labels:
[1] = tested on: anti-influenza IgA antibody; assay: Intranasal influenza vaccine adjuvant test: anti-influenza IgA antibody in nasal cavity wash; format: in vivo, BALB/c mice; settings: 4.92 μg with influenza vaccine 20 μl, twice, compared to influenza vaccine single administration group
Method: (§1) 8-Week-old female BALB/c mice were divided into groups (N=6), and each group was primarily immunized by intranasal administration of (1) saline, (2) influenza vaccine (Influenza HA Vaccine “SEIKEN”, manufactured by Denka Seiken Co. Ltd.) (20 μl) diluted with saline (influenza vaccine single administration group) as an antigen, (3) influenza vaccine (20 μl) and N,N′-bis(octadecanoyl)-L-cystine dimethyl ester (SZ35) (0.55 μg) as an adjuvant diluted with saline, (4) influenza vaccine (20 μl) and N,N′-bis(octadecanoyl)-L-cystine dimethyl ester (SZ35) (1.64 μg) as an adjuvant diluted with saline, and (5) influenza vaccine (20 μl) and N,N′-bis(octadecanoyl)-L-cystine dimethyl ester (SZ35) (4.92 μg) as an adjuvant diluted with saline, each per mouse. […] The obtained serum samples were measured for anti-influenza IgG1 subclass antibody and HI titer assay (hemagglutination inhibition test) was performed. […]
(§2) 0.5 μg/ml influenza vaccine (Influenza HA Vaccine “SEIKEN”, manufactured by Denka Seiken Co. Ltd.) was added to a 96 well plate by 100 μl per well, and the mixture was incubated at 4° C. overnight. […] Thereafter, a reaction quenching liquid (2N sulfuric acid solution) was added (50 μl/well) to discontinue a color developing reaction, and the absorbance (OD Value=450 nm) was measured by a microplate reader.

[2] = tested on: anti OVA-specific IgG1 subclass antibody; assay: Adjuvant activity test: anti OVA-specific IgG1 subclass antibody in serum after subcutaneous immunization with OVA; format: in vivo, BALB/c mice; settings: for production of anti OVA-specific IgG1 subclass antibody: dorsal-subcutaneous
Method: One week later, the secondary immunization was carried out by dorsal-subcutaneous administration of solutions similar to those of the above-mentioned (1) to (5) again. Two weeks from the secondary immunization, the whole blood and spleen were extracted under anesthesia, and the obtained serum sample was measured for anti OVA-specific IgG1 subclass antibody. A method for measurement of the anti OVA-specific IgG1 subclass antibody in Example 1, and the following Examples 2, 4, 7 to 10 and 13 to 16 is as follows.
To a 96 well plate was added 5 μg/ml OVA at 100 μl/well, and the mixture was incubated at 4° C. overnight. After incubation, the mixture was washed three times with 200 μl of PBS-T (PBS (phosphate buffered saline)+0.05% (v/v) Tween 20) per well, and blocked with 100 μl of 5% FCS (fatal calf serum)/PBS solution per well at room temperature for 1 to 2 hr. Thereafter, the mixture was washed three times with PBS-T (200 μl/well), a diluted serum sample (100 μl/well) or the same amount of 5% FCS/PBS solution as a control was added, and the mixture was incubated at 37° C. for 1 hr. Thereafter, the mixture was washed five times with PBS-T (200 μl/well), a diluted biotinylated anti-mouse IgG1 antibody (100 μl/well) was added, and the mixture was incubated at 37° C. for 45 min. Thereafter, the mixture was washed five times with PBS-T (200 μl/well), a diluted anti-biotin-HRP antibody was added (100 μl/well), and the mixture was incubated at 37° C. for another 30 min. Thereafter, the mixture was washed five times with PBS-T (200 μl/well), TMB substrate solution was added (100 μl/well), and the mixture was incubated at room temperature for 10 to 15 min. Thereafter, a reaction quenching liquid (2N sulfuric acid solution) was added (50 μl/well) to discontinue a color developing reaction, and the absorbance (OD Value=450 nm) was measured by a microplate reader.
One week later, the secondary immunization was carried out by dorsal-subcutaneous administration of solutions similar to those of the above-mentioned (1) to (6) again. Two weeks from the secondary immunization, the whole blood and spleen were extracted under anesthesia, and the obtained serum sample was measured for anti OVA-specific IgG1 subclass antibody.
8-Week-old female BALB/c mice were divided into groups (N=6), and each group was primarily immunized by dorsal-subcutaneous administration of (1) ovalbumin (OVA) ([…] administration group), (2) OVA (10 μg) and, as an adjuvant, N,N′-bis(2-heptylundecanoyl)-L-cystine dimethyl ester (SZ23) ([…]), (3) OVA (10 μg) and N,N′-bis(dodecanoyl)-L-cystine dimethyl ester (SZ24) ([…]), and (4) saline (saline single administration group), each per mouse. One week later, the secondary immunization was carried out by dorsal-subcutaneous administration of solutions similar to those of the above-mentioned (1) to (4) again. Two weeks from the secondary immunization, the whole blood was extracted under anesthesia, and the obtained serum sample was measured for anti OVA-specific IgG1 subclass antibody. SZ24 is disclosed in JP-A-4-230359, which is incorporated herein by reference in its entirety.
8-Week-old female BALB/c mice were divided into groups (N=6), and each group was primarily immunized by dorsal-subcutaneous administration of (1) ovalbumin (OVA) ([…] administration group), (2) OVA (10 μg) and, as an adjuvant, N,N′-bis(2-tetradecylhexadecanoyl)-L-cystine dimethyl ester (SZ37) (0.256 μmol) added to saline, (3) OVA (10 μg) and N,N′-bis(2-octadecyleicosanoyl)-L-cystine dimethyl ester (SZ38) (0.256 μmol) added to saline, (4) OVA (10 μg) and SZ37 (0.256 μmol) dissolved or dispersed in 5% αCD-added saline, and (5) OVA (10 μg) and SZ38 (0.256 μmol) dissolved or dispersed in 5% αCD-added saline, each per mouse. One week later, the secondary immunization was carried out by dorsal-subcutaneous administration of solutions or dispersions similar to those of the above-mentioned (1) to (5) again. […]

[3] = tested on: anti-influenza IgG1 subclass antibody; assay: Intranasal influenza vaccine adjuvant test: anti-influenza IgG1 subclass antibody in serum; format: in vivo, BALB/c mice; settings: twice, compared to influenza vaccine single administration group
Method: 8-Week-old female BALB/c mice were divided into groups (N=6), and each group was primarily immunized by intranasal administration of (1) saline, (2) influenza vaccine (Influenza HA Vaccine “SEIKEN”, manufactured by Denka Seiken Co. Ltd.) (20 μl) diluted with saline (influenza vaccine single administration group) as an antigen, (3) influenza vaccine (20 μl) and N,N′-bis(octadecanoyl)-L-cystine dimethyl ester (SZ35) (0.55 μg) as an adjuvant diluted with saline, (4) influenza vaccine (20 μl) and N,N′-bis(octadecanoyl)-L-cystine dimethyl ester (SZ35) (1.64 μg) as an adjuvant diluted with saline, and (5) influenza vaccine (20 μl) and N,N′-bis(octadecanoyl)-L-cystine dimethyl ester (SZ35) (4.92 μg) as an adjuvant diluted with saline, each per mouse. Two weeks later, the secondary immunization was carried out by intranasal administration of solutions similar to those of the above-mentioned (1) to (5) again. Two weeks from the secondary immunization, the whole blood was extracted under anesthesia, and nasal cavity washing was performed. The obtained serum samples were measured for anti-influenza IgG1 subclass antibody and HI titer assay (hemagglutination inhibition test) was performed. As a nasal cavity wash, thorax of mouse was opened to expose trachea, the trachea was incised, an Atom venous catheter with clause was inserted and 1 mL of saline was injected. The liquid discharged from the nose was centrifuged at 10000 g for 3 min, and the supernatant was recovered and used as a nasal cavity wash sample. The nasal cavity wash sample was subjected to the measurement of anti-influenza IgA antibody and IgG antibody. The measurement method was as follows.
as §2

[4] = tested on: anti-influenza IgG antibody; assay: Intranasal influenza vaccine adjuvant test: anti-influenza IgG antibody in nasal cavity wash; format: in vivo, BALB/c mice; settings: 4.92 μg with influenza vaccine 20 μl, twice, compared to influenza vaccine single administration group
Method: as §1, §2

[5] = tested on: HA antigen (A/California/7/2009(H1N1)); format: in vivo, BALB/c mice; settings: intranasal, twice, compared to influenza vaccine single administration group
[6] = tested on: anti OVA-specific IgE antibody; assay: Allergy induction activity test: anti OVA-specific IgE antibody in serum; format: in vivo, BALB/c mice; settings: dorsal-subcutaneous, compared to OVA single administration group
Method: 8-Week-old female BALB/c mice were divided into groups (N=6), and each group was primarily immunized by dorsal-subcutaneous administration of (1) ovalbumin (OVA) (10 μg) dissolved in saline as an antigen (OVA single administration group), (2) OVA (10 μg) and, as an adjuvant, N,N′-bis(2-heptylundecanoyl)-L-cystine dimethyl ester (SZ23) (2.56 μmol) (corresponding to 0.2 mg based on aluminum hydroxide gel adjuvant) dissolved in saline (SZ23; 2.56 μmol addition group), (3) OVA (10 μg) and SZ23; 0.256 μmol dissolved in saline (SZ23; 0.256 μmol addition group), (4) OVA (10 μg) and SZ23; 0.0256 μmol dissolved in saline (SZ23; 0.0256 μmol addition group), (5) OVA (10 μg) and aluminum hydroxide gel adjuvant (2.56 μmol) (0.2 mg) dissolved in saline (ALUM addition group, positive control), and (6) saline (saline single administration group), per each mouse. One week later, the secondary immunization was carried out by dorsal-subcutaneous administration of solutions similar to those of the above-mentioned (1) to (6) again. Two weeks from the secondary immunization, the whole blood and spleen were extracted under anesthesia, and the obtained serum sample was measured for anti OVA-specific IgG1 subclass antibody.
The serum sample obtained in Example 2 was measured for an anti OVA-specific IgE antibody. The measurement method of the anti OVA-specific IgE antibody is as follows.
DS mouse IgE ELISA (OVA) kit manufactured by DS Pharma Biomedical Co., Ltd. was used. The protocol is briefly shown below.
The serum sample and a standard reagent for drawing an analytical curve were diluted with a buffer and, after stirring, left standing at room temperature for 10 min. The sample and the standard solution were added to a plate bound with an IgE capture antibody in advance and, after stirring, the mixture was left standing at room temperature for 60 min. […] A reaction quenching liquid was added, the mixture was stirred, and the absorbance (OD Value=450 nm) was immediately measured.

[7] = tested on: Mouse macrophage-like cell line RAW; assay: Immunostimulatory effect on mouse macrophage-like cell line (CCK-8 cell proliferation, Stimulation Index); format: cell-based; settings: 24 hr, compared to well added only with medium
[8] = tested on: Human monocyte cell line THP-1; assay: Immunostimulatory effect on human monocyte cell line (CCK-8 cell proliferation, Stimulation Index); format: cell-based; settings: 24 hr, compared to well added only with medium
[9] = 0.256 μmol dispersed in 5% αCD-added saline with OVA 10 μg, compared to control (OVA in 5% αCD-added saline)
[10] = 2.56 μmol in saline with OVA 10 μg, primary + secondary immunization, serum two weeks after, compared to OVA single administration group
[11] = 0.55 μg with influenza vaccine 20 μl
[12] = 1.64 μg with influenza vaccine 20 μl
[13] = 4.92 μg with influenza vaccine 20 μl

SMILES: CCCCCCCCCCCCCCCCCC(=O)N[C@@H](CSSC[C@H](NC(=O)CCCCCCCCCCCCCCCCC)C(=O)OC)C(=O)OC [SZ35, N,N′-bis(octadecanoyl)-L-cystine dimethyl ester]
- production of anti-influenza IgA antibody in the nasal cavity wash [1]: significantly increased
- production of anti OVA-specific IgG1 subclass antibody [2, 9]: significantly increased
- production of anti OVA-specific IgG1 subclass antibody [2, 10]: significantly increased
- production of anti-influenza IgG1 subclass antibody in the serum [3, 11]: significantly increased
- production of anti-influenza IgG1 subclass antibody in the serum [3, 12]: significantly increased
- production of anti-influenza IgG1 subclass antibody in the serum [3, 13]: significantly increased
- production of anti-influenza IgG antibody in the nasal cavity wash [4]: significantly increased
- HI antibody value in the serum [5, 11]: significantly increase
- HI antibody value in the serum [5, 12]: significantly increase
- HI antibody value in the serum [5, 13]: significantly increase

SMILES: CCCCCCCCCC(CCCCCCC)C(=O)N[C@@H](CSSC[C@H](NC(=O)C(CCCCCCC)CCCCCCCCC)C(=O)OC)C(=O)OC (stereo partly drawn) [SZ23, N,N′-bis(2-heptylundecanoyl)-L-cystine dimethyl ester]
- production of anti OVA-specific IgE antibody ([6]; 0.0256 μmol in saline with OVA 10 μg): not observed
- production of anti OVA-specific IgE antibody ([6]; 0.256 μmol in saline with OVA 10 μg): not observed
- production of anti OVA-specific IgE antibody ([6]; 2.56 μmol in saline with OVA 10 μg): not observed
- cell proliferation (Stimulation Index) ([7]; final concentration 4 nM): significant cell proliferation
- cell proliferation (Stimulation Index) ([7]; final concentration 400 nM): significant cell proliferation
- cell proliferation (Stimulation Index) ([7]; final concentration 4 μM): significant cell proliferation
- production of anti OVA-specific IgG1 subclass antibody ([2]; 0.0256 μmol in saline with OVA 10 μg, compared to OVA single administration group): significantly increased
- production of anti OVA-specific IgG1 subclass antibody [2, 9]: significantly increased
- production of anti OVA-specific IgG1 subclass antibody ([2]; 0.256 μmol in saline with OVA 10 μg, compared to OVA single administration group): significantly increased
- production of anti OVA-specific IgG1 subclass antibody [2, 10]: significantly increased
- production of anti OVA-specific IgG1 subclass antibody relative to ALUM addition group ([2]; all addition groups 2.56, 0.256 and 0.0256 μmol in saline, compared to aluminum hydroxide gel adjuvant 2.56 μmol (0.2 mg)): of the same level
- cell proliferation (Stimulation Index) ([8]; THP-1, final concentration 400 nM): significant cell proliferation
- cell proliferation (Stimulation Index) ([8]; THP-1, final concentration 4 μM): significant cell proliferation
